Data as given in ChEMBL document CHEMBL1201862, “PubChem BioAssay data set” (2004).
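Test compounds were applied to cells in 96-well plates for 48 hours at 5 doses. At the GI50, growth is halved.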 Calls of active or inactive are those of the source. No stated cut-off is given here; in the data, active = GI50 up to about 1.1 µM and inactive = higher.

What was measured:
Test in all cases: NCI tumour cell line growth inhibition, 48 h
[1] = tested on: M14
[2] = tested on: K562
[3] = tested on: ACHN
[4] = tested on: HOP-62
[5] = tested on: TK-10
[6] = tested on: HCT-116
[7] = tested on: OVCAR-5
[8] = tested on: SK-MEL-28
[9] = tested on: UO-31
[10] = tested on: NCI-H460
[11] = tested on: MOLT-4
[12] = tested on: EKVX
[13] = tested on: NCI-H522
[14] = tested on: RXF 393
[15] = tested on: IGROV-1
[16] = tested on: Malme-3M
[17] = tested on: SF-539
[18] = tested on: SK-OV-3
[19] = tested on: NCI/ADR-RES
[20] = tested on: HT-29

SMILES	GI50 [1]	GI50 [2]	GI50 [3]	GI50 [4]	GI50 [5]	GI50 [6]	GI50 [7]	GI50 [8]	GI50 [9]	GI50 [10]	GI50 [11]	GI50 [12]	GI50 [13]	GI50 [14]	GI50 [15]	GI50 [16]	GI50 [17]	GI50 [18]	GI50 [19]	GI50 [20]
C=CCN(c1cc(OC)c2[nH]c(C(=O)O)c(C)c2c1[N+](=O)[O-])S(C)(=O)=O	> 100 µM (inactive)	> 100 µM (inactive)	> 100 µM (inactive)	> 100 µM (inactive)	> 100 µM (inactive)	> 100 µM (inactive)	> 100 µM (inactive)	> 100 µM (inactive)	> 100 µM (inactive)	> 100 µM (inactive)	> 100 µM (inactive)	> 100 µM (inactive)	10 µM (inactive)	> 100 µM (inactive)	> 100 µM (inactive)	9.79 µM (inactive)	> 100 µM (inactive)	> 100 µM (inactive)	> 100 µM (inactive)	–
COC1/C=C/C(C)C(OC)CC(O)/C=C/C(C)C(C(C)C(OC)C(C)CCC(=O)C(C)C(C/C=C/N(C)C=O)OC)OC(=O)/C=C/C=C(\C)CC(OC)C(OC)C2=CC(=O)O[C@@H](C(C)C(OC)C1)[C@H]2O (some centres not stated)	0.0384 µM (active)	–	0.0367 µM (active)	0.0324 µM (active)	0.0548 µM (active)	0.00847 µM (active)	0.0479 µM (active)	0.0446 µM (active)	0.0419 µM (active)	0.0172 µM (active)	0.0681 µM (active)	0.08 µM (active)	0.0295 µM (active)	0.039 µM (active)	0.0341 µM (active)	0.04 µM (active)	0.0313 µM (active)	0.0436 µM (active)	0.0522 µM (active)	0.0356 µM (active)
CCCC(O)C(NC(=O)CCl)C(=O)O (configuration not stated)	–	> 100 µM (inactive)	–	> 100 µM (inactive)	–	> 100 µM (inactive)	> 100 µM (inactive)	> 100 µM (inactive)	> 100 µM (inactive)	> 100 µM (inactive)	> 100 µM (inactive)	> 100 µM (inactive)	> 100 µM (inactive)	> 100 µM (inactive)	> 100 µM (inactive)	> 100 µM (inactive)	> 100 µM (inactive)	> 100 µM (inactive)	> 100 µM (inactive)	> 100 µM (inactive)
Cc1ccc(C(C)(C)C[P+](C)(c2ccccc2)c2ccccc2)cc1	–	5 µM (inactive)	–	18.4 µM (inactive)	–	6.56 µM (inactive)	18.1 µM (inactive)	8.51 µM (inactive)	20.8 µM (inactive)	14 µM (inactive)	11 µM (inactive)	38.5 µM (inactive)	3.4 µM (inactive)	27.5 µM (inactive)	5.28 µM (inactive)	4.18 µM (inactive)	28 µM (inactive)	22.1 µM (inactive)	> 100 µM (inactive)	4.46 µM (inactive)
Cc1ccc(C2C(C(=O)C(C)(C)C)N2S(=O)(=O)c2ccc(C)cc2)cc1 (configuration not stated)	17.8 µM (inactive)	25.3 µM (inactive)	–	33.5 µM (inactive)	28.6 µM (inactive)	18.7 µM (inactive)	21.3 µM (inactive)	28.1 µM (inactive)	18.4 µM (inactive)	–	–	15.7 µM (inactive)	16.1 µM (inactive)	21 µM (inactive)	17.5 µM (inactive)	23.2 µM (inactive)	14.9 µM (inactive)	> 100 µM (inactive)	23.4 µM (inactive)	24.3 µM (inactive)
CCOC(=O)c1ccc(/N=c2/[nH]c3ccccc3s/c2=N/c2ccc(C(=O)OCC)cc2)cc1	–	> 100 µM (inactive)	29.1 µM (inactive)	> 100 µM (inactive)	> 100 µM (inactive)	53.1 µM (inactive)	> 100 µM (inactive)	> 100 µM (inactive)	> 100 µM (inactive)	40.6 µM (inactive)	> 100 µM (inactive)	> 100 µM (inactive)	5.24 µM (inactive)	> 100 µM (inactive)	> 100 µM (inactive)	> 100 µM (inactive)	72.8 µM (inactive)	> 100 µM (inactive)	88.9 µM (inactive)	70.3 µM (inactive)
O=C1/C(=C2/CCCN2)C(c2ccc[nH]2)=NN1c1ccccc1	> 100 µM (inactive)	> 100 µM (inactive)	> 100 µM (inactive)	–	> 100 µM (inactive)	> 100 µM (inactive)	> 100 µM (inactive)	> 100 µM (inactive)	> 100 µM (inactive)	> 100 µM (inactive)	> 100 µM (inactive)	> 100 µM (inactive)	> 100 µM (inactive)	> 100 µM (inactive)	–	> 100 µM (inactive)	> 100 µM (inactive)	> 100 µM (inactive)	> 100 µM (inactive)	> 100 µM (inactive)
CCCNC1=C(C)C(=O)C2=C(C1=O)[C@H](COC(N)=O)[C@]1(OC)[C@@H]3N[C@@H]3CN21	–	12.1 µM (inactive)	–	0.303 µM (active)	–	3.69 µM (inactive)	13.7 µM (inactive)	19.8 µM (inactive)	20.3 µM (inactive)	0.0661 µM (active)	1.05 µM (active)	4.3 µM (inactive)	2.88 µM (inactive)	12 µM (inactive)	5.04 µM (inactive)	6.07 µM (inactive)	4.39 µM (inactive)	16.6 µM (inactive)	> 100 µM (inactive)	9.31 µM (inactive)
O=C(OCc1c(-c2ccccc2)nn(-c2ccccc2)c1COC(=O)Oc1ccccc1)Oc1ccccc1	> 100 µM (inactive)	> 100 µM (inactive)	> 100 µM (inactive)	> 100 µM (inactive)	> 100 µM (inactive)	> 100 µM (inactive)	> 100 µM (inactive)	> 100 µM (inactive)	–	> 100 µM (inactive)	> 100 µM (inactive)	> 100 µM (inactive)	> 100 µM (inactive)	> 100 µM (inactive)	> 100 µM (inactive)	> 100 µM (inactive)	> 100 µM (inactive)	> 100 µM (inactive)	> 100 µM (inactive)	> 100 µM (inactive)
CCOC(=O)/C(C(=O)NC(C)C)=C(/N)N1CCOCC1	> 100 µM (inactive)	> 100 µM (inactive)	> 100 µM (inactive)	> 100 µM (inactive)	> 100 µM (inactive)	> 100 µM (inactive)	> 100 µM (inactive)	> 100 µM (inactive)	–	> 100 µM (inactive)	> 100 µM (inactive)	> 100 µM (inactive)	> 100 µM (inactive)	> 100 µM (inactive)	> 100 µM (inactive)	> 100 µM (inactive)	> 100 µM (inactive)	> 100 µM (inactive)	> 100 µM (inactive)	> 100 µM (inactive)
COc1ccc2c(c1)c1c(C)c3cnccc3c(C)c1n2CCCN	0.145 µM (active)	–	0.124 µM (active)	0.444 µM (active)	0.248 µM (active)	0.0556 µM (active)	0.431 µM (active)	0.458 µM (active)	0.524 µM (active)	0.065 µM (active)	–	0.307 µM (active)	0.313 µM (active)	0.05 µM (active)	0.313 µM (active)	0.681 µM (active)	0.405 µM (active)	0.415 µM (active)	0.273 µM (active)	0.117 µM (active)
CSCCC(NC(=O)C(Cc1ccccc1)NC(=O)CNC(=O)CNC(=O)C(N)Cc1ccc(O)cc1)C(=O)O (configuration not stated)	–	> 100 µM (inactive)	–	> 100 µM (inactive)	–	> 100 µM (inactive)	> 55.5 µM (inactive)	> 100 µM (inactive)	> 100 µM (inactive)	> 100 µM (inactive)	> 100 µM (inactive)	> 100 µM (inactive)	> 100 µM (inactive)	> 100 µM (inactive)	> 100 µM (inactive)	> 100 µM (inactive)	> 100 µM (inactive)	> 100 µM (inactive)	> 100 µM (inactive)	> 100 µM (inactive)
C[C@@H]1OC(=O)/C(=C\N(C)C)[C@H]2CC(=O)N(CCc3cn(S(=O)(=O)C(F)(F)F)c4ccccc34)C[C@H]12	> 100 µM (inactive)	> 100 µM (inactive)	> 100 µM (inactive)	> 100 µM (inactive)	> 100 µM (inactive)	> 100 µM (inactive)	> 100 µM (inactive)	> 100 µM (inactive)	> 100 µM (inactive)	> 100 µM (inactive)	> 100 µM (inactive)	> 100 µM (inactive)	> 100 µM (inactive)	> 100 µM (inactive)	> 100 µM (inactive)	> 100 µM (inactive)	> 100 µM (inactive)	> 100 µM (inactive)	> 100 µM (inactive)	–
CCOC(=O)C1(C/C=C\CBr)CCCCCCC1=O (configuration not stated)	> 100 µM (inactive)	–	> 100 µM (inactive)	> 100 µM (inactive)	91 µM (inactive)	> 100 µM (inactive)	> 100 µM (inactive)	> 100 µM (inactive)	> 100 µM (inactive)	–	> 100 µM (inactive)	> 100 µM (inactive)	> 100 µM (inactive)	> 100 µM (inactive)	> 100 µM (inactive)	> 100 µM (inactive)	> 100 µM (inactive)	> 100 µM (inactive)	> 100 µM (inactive)	> 100 µM (inactive)
C(/C=N/c1ccccc1)=C(/Nc1ccccc1)c1ccc2ccccc2c1	1.87 µM (inactive)	0.897 µM (active)	2.39 µM (inactive)	1.82 µM (inactive)	1.45 µM (inactive)	1.87 µM (inactive)	2.51 µM (inactive)	0.231 µM (active)	3.13 µM (inactive)	2.81 µM (inactive)	1 µM (active)	–	3.87 µM (inactive)	1.66 µM (inactive)	2.88 µM (inactive)	1.78 µM (inactive)	1.83 µM (inactive)	2.76 µM (inactive)	1.5 µM (inactive)	1.77 µM (inactive)
